Assay results: patent US10047063B2, “Method for improving the oxygen-releasing ability of hemoglobin to organs or peripheral tissues in human bodies and a medication thereof” (NATIONAL SUN YAT-SEN UNIVERSITY, priority 2014, dated 2018)

Assays:
Format in all cases: biochemical
[1] = target: T1, hemoglobin (Homo sapiens, UniProt P68871+P69905); experiment: Resonance Raman spectroscopy: percentage of high oxygen affinity "R" state of oxygenated hemoglobin treated with compounds; conditions: varying mole ratio to Hb tetramer, 532 nm excitation, oxygen atmosphere
T1 sequence (P69905 2-142 limits assumed): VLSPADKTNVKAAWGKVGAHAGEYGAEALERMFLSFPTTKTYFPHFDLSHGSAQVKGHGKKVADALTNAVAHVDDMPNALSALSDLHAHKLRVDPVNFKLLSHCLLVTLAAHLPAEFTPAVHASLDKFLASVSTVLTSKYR
T1 sequence (P68871 2-147 limits assumed): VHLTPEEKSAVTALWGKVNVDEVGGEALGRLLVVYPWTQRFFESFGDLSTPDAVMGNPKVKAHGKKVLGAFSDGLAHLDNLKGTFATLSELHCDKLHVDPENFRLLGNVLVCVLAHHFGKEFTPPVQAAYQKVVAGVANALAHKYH
Excerpt: In order to evaluate the effect of the compound of Formula I on stabilizing the oxygenated hemoglobin in the low oxygen affinity “T” state, compounds including 2,3-bisphosphoglycerate (group A0), Z-butylidenephthalide (group A1), Z-ligustilide (group A2), senkyunolide A (group A3), senkyunolide H (group A4) and senkyunolide I (group A5) are mixed with hemoglobin as a function of their mole ratio to hemoglobin, followed by the resonance Raman spectroscopy measurements at 532 nm excitation wavelength under the oxygen atmosphere. The percentages of the high oxygen affinity “R” state for hemoglobin treated with 2,3-bisphosphoglycerate (shown in FIG. 2a, as reference) and various phthalide phyto-compounds (shown in FIGS. 2b to 2f) are analyzed from the resonance Raman spectroscopy measurements. In more specific, the percentage of high oxygen affinity “R” state for each treated hemoglobin was obtained by fitting a simulated spectrum comprised of adjustable weighing factors of the T and R states of pure hemoglobin to the obtained resonance Raman spectrum of treated hemoglobin. […]

[2] = target: fetal hemoglobin (α2γ2, HbF) (Homo sapiens, UniProt P69905); experiment: Resonance Raman spectroscopy: percentage of "R" state of oxygenated fetal hemoglobin treated with compounds; conditions: oxygen atmosphere
fetal hemoglobin (α2γ2, HbF), sequence (P69905 2-142 limits assumed): as the sequence (P69905 2-142 limits assumed) above
fetal hemoglobin (α2γ2, HbF), sequence (P69892 2-147 partner limits assumed): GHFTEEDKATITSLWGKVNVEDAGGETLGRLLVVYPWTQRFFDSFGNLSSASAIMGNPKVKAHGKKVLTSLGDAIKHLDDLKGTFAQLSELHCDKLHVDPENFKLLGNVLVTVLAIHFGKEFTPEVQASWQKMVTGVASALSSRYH
Excerpt: In order to evaluate the effect of the compound of phthalides on stabilizing the oxygenated hemoglobin variants in the low oxygen affinity “T” state, compounds including 2,3-bisphosphoglycerate (group A0), Z-butylidenephthalide (group A1), Z-ligustilide (group A2), senkyunolide A (group A3), senkyunolide H (group A4) and senkyunolide I (group A5) are mixed with fetal hemoglobin (α2γ2, HbF) as a representative hemoglobin variant which is also a potential hemoglobin-based blood substitute, followed by the resonance Raman spectroscopy measurements under the oxygen atmosphere. The percentages of the high oxygen affinity “R” state of fetal hemoglobin treated with 2,3-bisphosphoglycerate (shown in FIG. 3a) and various phthalide phyto-compounds (shown in FIGS. 3b to 3f) are also analyzed from the resonance Raman spectroscopy measurements, following the same spectral analysis procedures as that of normal hemoglobin.

[3] = target: T1, hemoglobin; experiment: Oxygen equilibrium curve (OEC) measurement, P50 of treated hemoglobin
Excerpt: FIG. 4a is a diagram illustrating the oxygen equilibrium curve (OEC) of hemoglobin treated with 2,3-bisphosphoglycerate with a molar ratio to Hb of 1.0 (dash black curve). The OEC of pure hemoglobin (solid black curve) is also shown as the reference. The P50 value derived from the OEC for pure hemoglobin and for Hb treated with 2,3-bisphosphoglycerate are 12.6 and 16.4±1 mmHg, respectively.
To evaluate the effect of the compound of phthalides on reducing the oxygen affinity and thus promoting the oxygen release, the oxygen equilibrium curves (OEC) for hemoglobin treated with 2,3-bisphosphoglycerate (solid black curve in FIG. 4a) and Z-butylidenephthalide (Z-butylidenephthalide-to-Hb molar ratio of: 0.2, solid black curve; 0.5, dash-dot black curve; 0.8, dot black curve in FIG. 4b), are measured in comparison with that of pure hemoglobin (dash black curves in FIGS. 4a and 4b).
From the oxygen equilibrium measurements, the P50 values of hemoglobin treated compounds, including Z-butylidenephthalide, Z-ligustilide and senkyunolide A are obtained, as shown in FIGS. 5a to 5c. P50, defined as the oxygen partial pressure required for 50% of Hb to become oxygenated or deoxygenated, is a direct measure of oxygen affinity for hemoglobin, which increases with decreasing oxygen affinity.

[4] = effector-to-Hb mole ratio of 0.8 (Level II), pure hemoglobin 12.6±1

Row | SMILES | "R" state suppression efficiency [1] | effect on relative ratio of high oxygen affinity "R" state of fetal hemoglobin [2] | P50 of hemoglobin treated with compound ([3]; molar ratio to Hb of 1.0, pure hemoglobin 12.6) | P50 of hemoglobin treated with compound [3, 4]
1 | O=C(O)C(COP(=O)(O)O)OP(=O)(O)O (centres unmarked) [2,3-bisphosphoglycerate, reference compound] | about 20% | no effect | 16.4±1 mmHg | –
2 | CCC/C=C1\OC(=O)c2ccccc21 [Z-butylidenephthalide] | – | can stabilize the low oxygen affinity “T” state | – | 17.4 mmHg
3 | CCC/C=C1\OC(=O)C2=C1CCC=C2 [Z-ligustilide] | – | can stabilize the low oxygen affinity “T” state | – | 15.9 mmHg
4 | CCCC[C@@H]1OC(=O)C2=C1CCC=C2 [senkyunolide A] | – | can stabilize the low oxygen affinity “T” state | – | –
5 | CCC/C=C1\OC(=O)C2=C1CC[C@@H](O)[C@H]2O [senkyunolide H] | – | can stabilize the low oxygen affinity “T” state | – | –
6 | CCC/C=C1\OC(=O)C2=C1CC[C@@H](O)[C@@H]2O [senkyunolide I] | – | can stabilize the low oxygen affinity “T” state | – | 15.2±1 mmHg
